In ChEMBL document CHEMBL5584216, “Expanded library of novel 2,3-pyrrolidinedione analogues exhibit anti-biofilm activity” (2024) one finds MIC, Activity and MBEC data, which are given here for 15 molecules.

What all share (assay type): functional
For experiment [1], the system named is Staphylococcus aureus. The experiment in a line: Antimicrobial activity against methicillin-resistant Staphylococcus aureus ATCC 33591 assessed as reduction in microbial growth.
For experiment [2], the system named is Staphylococcus aureus. In words: Antibiofilm activity against methicillin-resistant Staphylococcus aureus ATCC BAA-44 at 5 uM relative to control.
Experiment [3] deals with Staphylococcus aureus. In words: Antibiofilm activity against methicillin-sensitive Staphylococcus aureus ATCC 25923 assessed as biofilm eradication at pH 9.0.
Experiment [4] concerns Staphylococcus aureus. In words: Antimicrobial activity against methicillin-sensitive Staphylococcus aureus ATCC 25923 assessed as reduction in microbial growth at pH 9.0.
For experiment [5], the system named is Staphylococcus aureus. In words: Antibiofilm activity against methicillin-resistant Staphylococcus aureus ATCC BAA-44 at 40 uM relative to control.

Some results are limits rather than exact numbers.

Consider `CCC1C(c2ccc(C(F)(F)F)cc2)=C(O)C(=O)N1c1ccc(OC)c(OC)c1` (stereo not given), for which the values for the MIC with Staphylococcus aureus [1] and in the experiment on Staphylococcus aureus [4] were > 128 µg/mL and 64 µg/mL, respectively. Besides, the values for the Activity with Staphylococcus aureus [2] and in the experiment on Staphylococcus aureus [5] were 17% and 70%, respectively. For the same molecule, the MBEC in the experiment with Staphylococcus aureus [3] was >512 µg/mL.

As for `CCC1C(c2ccc(C(F)(F)F)cc2)=C(O)C(=O)N1c1ccccc1` (stereo not given), the minimum inhibitory concentration (MIC) in the experiment on Staphylococcus aureus [1] and in the experiment on Staphylococcus aureus [4] was 16 µg/mL in each case. Besides, the figures for the Activity with Staphylococcus aureus [2] and in the experiment with Staphylococcus aureus [5] were 5% and 85%, respectively. For the same molecule, in the experiment on Staphylococcus aureus [3], the MBEC came out at 128 µg/mL.

With `O=C1C(O)=C(c2ccc(C(F)(F)F)cc2)CN1c1ccccc1`, the MIC was > 128 µg/mL in the experiment with Staphylococcus aureus [1] and > 256 µg/mL in the experiment with Staphylococcus aureus [4]. Also, the Activity in the experiment with Staphylococcus aureus [2] was found to be 26%; in the experiment with Staphylococcus aureus [5], 8%. The MBEC in the experiment with Staphylococcus aureus [3] turned out to be 512 µg/mL.

On to `CCCCCCCN1C(=O)C(O)=C(c2ccc(C(F)(F)F)cc2)C1CC` (stereo not given), for which the MIC amounted to 64 µg/mL in the experiment on Staphylococcus aureus [1] and 32 µg/mL in the experiment on Staphylococcus aureus [4]. In addition, the values for the Activity with Staphylococcus aureus [2] and in the experiment on Staphylococcus aureus [5] were 64% and 59%, respectively. For the same molecule, the MBEC with Staphylococcus aureus [3] is >512 µg/mL.

Take `CCC1C(c2ccc(C(F)(F)F)cc2)=C(O)C(=O)N1CCc1ccccc1` (stereo not given): the minimal inhibitory concentration (MIC) in the experiment with Staphylococcus aureus [1] was > 128 µg/mL; with Staphylococcus aureus [4] it was 64 µg/mL. In addition, the Activity in the experiment on Staphylococcus aureus [2] turned out to be 23%; in the experiment with Staphylococcus aureus [5], 45%. The MBEC with Staphylococcus aureus [3] was 256 µg/mL.

`CCC1C(c2ccc(C(F)(F)F)cc2)=C(O)C(=O)N1c1ccccn1` (stereo not given): the MIC in the experiment on Staphylococcus aureus [1] is > 128 µg/mL; in the experiment on Staphylococcus aureus [4], 32 µg/mL. The values for the Activity in the experiment with Staphylococcus aureus [2] and in the experiment on Staphylococcus aureus [5] were 4% and 31%, respectively. Moreover, in the experiment on Staphylococcus aureus [3], the MBEC was found to be 128 µg/mL.

Regarding `CCCCCCN1C(=O)C(O)=C(c2ccc(C(F)(F)F)cc2)C1CC` (stereo not given), the minimal inhibitory concentration (MIC) in the experiment on Staphylococcus aureus [1] came out at 16 µg/mL; with Staphylococcus aureus [4], 32 µg/mL. For the same molecule, the results for the Activity with Staphylococcus aureus [2] and with Staphylococcus aureus [5] were 59% and 85%, respectively. In addition, the MBEC in the experiment on Staphylococcus aureus [3] turned out to be 512 µg/mL.

With `CC(C)C1C(c2ccc(C(F)(F)F)cc2)=C(O)C(=O)N1c1ccccc1` (stereo not given), the MIC in the experiment with Staphylococcus aureus [1] is > 128 µg/mL; with Staphylococcus aureus [4] it was 16 µg/mL. The Activity in the experiment on Staphylococcus aureus [2] was -5%; with Staphylococcus aureus [5] it was 3%. Also, the MBEC in the experiment with Staphylococcus aureus [3] amounted to 512 µg/mL.

Regarding `CCC1C(c2ccc(C(F)(F)F)cc2)=C(O)C(=O)N1c1ccc(F)cc1` (stereo not given), the minimal inhibitory concentration (MIC) in the experiment with Staphylococcus aureus [1] and in the experiment with Staphylococcus aureus [4] was 16 µg/mL throughout. The Activity in the experiment with Staphylococcus aureus [2] was found to be 22%; in the experiment with Staphylococcus aureus [5], 81%. Also, in the experiment on Staphylococcus aureus [3], the MBEC was 128 µg/mL.

On to `CCC1C(c2ccc(C(F)(F)F)cc2)=C(O)C(=O)N1c1ccc(Br)cc1` (stereo not given), for which the minimum inhibitory concentration (MIC) with Staphylococcus aureus [1] and in the experiment with Staphylococcus aureus [4] was 32 µg/mL each time. Also, the Activity with Staphylococcus aureus [2] was determined as 34%; with Staphylococcus aureus [5], 72%. In addition, the MBEC with Staphylococcus aureus [3] came out at 128 µg/mL.

In the case of `CCC1C(c2ccc(C(F)(F)F)cc2)=C(O)C(=O)N1CCC(C)C` (stereo not given), the minimal inhibitory concentration (MIC) was > 128 µg/mL with Staphylococcus aureus [1] and 64 µg/mL with Staphylococcus aureus [4]. The figures for the Activity with Staphylococcus aureus [2] and in the experiment with Staphylococcus aureus [5] were 47% and 43%, respectively. Also, the MBEC in the experiment with Staphylococcus aureus [3] is >512 µg/mL.

With `CCC1C(c2ccc(C(F)(F)F)cc2)=C(O)C(=O)N1Cc1cccs1` (stereo not given), the minimal inhibitory concentration (MIC) in the experiment with Staphylococcus aureus [1] is > 128 µg/mL; in the experiment with Staphylococcus aureus [4] it was 32 µg/mL. Besides, the Activity in the experiment with Staphylococcus aureus [2] is on record as 54%; in the experiment with Staphylococcus aureus [5], 79%. In addition, the MBEC with Staphylococcus aureus [3] was found to be 128 µg/mL.

As to `CCC1C(c2ccc(C(F)(F)F)cc2)=C(O)C(=O)N1Cc1ccc(OC)cc1OC` (stereo not given), the figures for the MIC in the experiment on Staphylococcus aureus [1] and in the experiment on Staphylococcus aureus [4] were > 128 µg/mL and > 256 µg/mL, respectively. Further, the Activity with Staphylococcus aureus [2] stood at 63%; with Staphylococcus aureus [5], 57%. The MBEC in the experiment with Staphylococcus aureus [3] was >512 µg/mL.

Consider `CC1C(c2ccc(C(F)(F)F)cc2)=C(O)C(=O)N1c1ccccc1` (stereo not given), for which the MIC in the experiment with Staphylococcus aureus [1] came out at 32 µg/mL; with Staphylococcus aureus [4], 16 µg/mL. For the same molecule, the figures for the Activity with Staphylococcus aureus [2] and in the experiment on Staphylococcus aureus [5] were -26% and 72%, respectively. In the experiment with Staphylococcus aureus [3], the MBEC was 256 µg/mL.

For `CCCCCN1C(=O)C(O)=C(c2ccc(C(F)(F)F)cc2)C1CC` (stereo not given), the MIC amounted to 16 µg/mL with Staphylococcus aureus [1] and 32 µg/mL with Staphylococcus aureus [4]. Moreover, the Activity with Staphylococcus aureus [2] is 58%; in the experiment on Staphylococcus aureus [5], 63%. Besides, the MBEC in the experiment with Staphylococcus aureus [3] came to 256 µg/mL.
